Experiments:
[1] = tested on: other tested bromodomains; assay: DSF selectivity panel of 22 bromodomains; type: binding, human; details: bromodomains other than PBRM1-BD2, -BD3, -BD5
Method: (§1) Differential Scanning Fluorimetry (DSF). Bromodomain DSF Tm assays were performed using an Mx3005P (Stratagene) PCR detection system and low profile 96-well PCR plates (UltraFlux, Flat Top, SSI 3400-00S). […] The temperature was raised by 1° C./min from 25-95° C., and fluorescence readings were taken at each interval. Melting curves were analyzed using our online interactive fitting tool for thermofluor experiments (https://dsf-analysis.herokuapp.com/DSF-analysis) and plotted using GraphPad Prism.

[2] = biological target: T1, SMARCA2 (Homo sapiens (Human), UniProt P51531); assay: Isothermal titration calorimetry (ITC); type: binding; details: NB = did not bind
Method: (§3) Binding affinities of inhibitors towards PBRM1-BD2, PBRM1-BD5, SMARCA2, SMARCA4, and ASH1L were determined using a VP-ITC instrument (MicroCal). […] Protein concentrations were determined via the method of Bradford.^1 The buffer used for all ITC experiments consisted of 50 mM HEPES (pH 7.5 at 20° C.), 500 mM NaCl, 5% v/v glycerol, and 1% v/v DMSO; except for experiments involving PBRM1-BD2 whose buffer consisted of 100 mM Na2PO4 (pH 7.5 at 20° C.), 100 mM NaCl, 5% v/v glycerol, and 1% v/v DMSO. Kd values were determined by least-squares fitting to the raw data using Origin (OriginLab).

[3] = biological target: BRD4-BD2 (Homo sapiens (Human), UniProt O60885); assay: DSF selectivity profiling; type: binding
Method: as §1

[4] = biological target: CREBBP (Homo sapiens (Human), UniProt Q92793); assay: DSF selectivity profiling; type: binding
Method: as §1

[5] = biological target: p300 (Homo sapiens (Human), UniProt Q09472); assay: DSF selectivity profiling; type: binding
Method: as §1

[6] = biological target: BRD3-BD2 (Homo sapiens (Human), UniProt Q15059); assay: DSF selectivity profiling; type: binding
Method: as §1

[7] = biological target: ASH1L (Homo sapiens (Human), UniProt Q9NR48); assay: DSF selectivity profiling; type: binding
Method: as §1

[8] = biological target: BRD7 (Homo sapiens (Human), UniProt Q9NPI1); assay: DSF selectivity profiling; type: binding
Method: as §1

[9] = biological target: BRDT-BD1 (Homo sapiens (Human), UniProt Q58F21); assay: DSF selectivity profiling; type: binding
Method: as §1

[10] = biological target: CECR2 (Homo sapiens (Human), UniProt Q9BXF3); assay: DSF selectivity profiling; type: binding
Method: as §1

[11] = biological target: BRD3-BD1 (Homo sapiens (Human), UniProt Q15059); assay: DSF selectivity profiling; type: binding
Method: as §1

[12] = biological target: BRD4-BD1 (Homo sapiens (Human), UniProt O60885); assay: DSF selectivity profiling; type: binding
Method: as §1

[13] = biological target: BRD2-BD2 (Homo sapiens (Human), UniProt P25440); assay: DSF selectivity profiling; type: binding
Method: as §1

[14] = biological target: TRIM33A (Homo sapiens (Human), UniProt Q9UPN9); assay: DSF selectivity profiling; type: binding
Method: as §1

[15] = biological target: PCAF (Homo sapiens (Human), UniProt Q92831); assay: DSF selectivity profiling; type: binding
Method: as §1

[16] = biological target: T2, SMARCA4 (Homo sapiens (Human), UniProt P51532); assay: DSF selectivity profiling; type: binding
Method: as §1

[17] = biological target: T2, SMARCA4; assay: Isothermal titration calorimetry (ITC); type: binding; details: NB = did not bind
Method: as §3

[18] = tested on: HEK293T cells; assay: Cell viability assay (CellTiter-Glo); type: cell-based, human; details: dose curve
Method: (§2) Cell Viability Assays. Cells were seeded in a 96-well plate and incubated for 12-24 h prior to initial treatment. The number of cells per well was chosen empirically based on cell growth rates (LNCaP-5,000 cells/well, PC3 and RWPE-1-3,000 cells per well, HEK293T-1,000 cells/well). Cells were treated with either DMSO control or serial dilutions of inhibitors and media with compound was refreshed every 48 h.

[19] = tested on: RWPE-1 cells; assay: Cell viability assay (CellTiter-Glo); type: cell-based, human; details: 10, 1 and 0.1 μM
Method: as §2

[20] = tested on: PC3 cells; assay: Cell viability assay (CellTiter-Glo); type: cell-based, human; details: 10, 1 and 0.1 μM
Method: as §2

[21] = biological target: T1, SMARCA2; assay: DSF selectivity profiling; type: binding
Method: as §1

BRD7, sequence (Q9NPI1 131-235): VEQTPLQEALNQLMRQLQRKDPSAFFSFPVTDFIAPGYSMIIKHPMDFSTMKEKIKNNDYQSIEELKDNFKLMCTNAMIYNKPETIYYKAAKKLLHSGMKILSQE
BRD2-BD2, sequence (P25440 344-453): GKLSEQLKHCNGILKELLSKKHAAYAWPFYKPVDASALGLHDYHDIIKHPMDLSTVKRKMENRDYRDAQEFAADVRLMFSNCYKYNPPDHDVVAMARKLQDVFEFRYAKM
T1 sequence (P51531 1378-1506): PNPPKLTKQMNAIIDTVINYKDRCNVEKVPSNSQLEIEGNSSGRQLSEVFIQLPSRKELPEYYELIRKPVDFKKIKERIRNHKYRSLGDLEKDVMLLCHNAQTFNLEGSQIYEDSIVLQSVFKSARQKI
CECR2, sequence (Q9BXF3 434-538): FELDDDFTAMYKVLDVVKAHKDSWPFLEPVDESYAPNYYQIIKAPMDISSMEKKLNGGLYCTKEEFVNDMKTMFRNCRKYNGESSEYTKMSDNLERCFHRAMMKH
BRD3-BD1, sequence (Q15059 34-140): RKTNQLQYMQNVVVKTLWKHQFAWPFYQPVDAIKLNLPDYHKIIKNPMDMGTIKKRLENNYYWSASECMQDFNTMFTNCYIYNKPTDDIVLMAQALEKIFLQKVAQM
TRIM33A, sequence (Q9UPN9 957-1080): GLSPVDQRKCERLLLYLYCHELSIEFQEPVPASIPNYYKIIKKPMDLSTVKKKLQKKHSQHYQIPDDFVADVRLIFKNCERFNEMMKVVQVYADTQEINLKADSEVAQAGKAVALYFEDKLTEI
BRD3-BD2, sequence (Q15059 306-415): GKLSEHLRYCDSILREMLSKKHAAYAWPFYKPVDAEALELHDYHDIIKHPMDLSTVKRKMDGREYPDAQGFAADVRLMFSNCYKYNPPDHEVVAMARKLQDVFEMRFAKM
p300, sequence (Q09472 1049-1156): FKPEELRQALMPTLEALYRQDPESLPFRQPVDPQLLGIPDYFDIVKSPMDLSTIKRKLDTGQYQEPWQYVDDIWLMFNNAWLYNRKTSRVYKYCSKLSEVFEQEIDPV
CREBBP, sequence (Q92793 1085-1192): as the sequence (Q09472 1049-1156) above, with S47N, I73V, Y93F, S98A counted along it
PCAF, sequence (Q92831 723-827): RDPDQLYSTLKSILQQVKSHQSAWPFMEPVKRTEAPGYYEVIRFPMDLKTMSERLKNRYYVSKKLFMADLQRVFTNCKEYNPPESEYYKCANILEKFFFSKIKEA
T2 sequence (P51532 1453-1564): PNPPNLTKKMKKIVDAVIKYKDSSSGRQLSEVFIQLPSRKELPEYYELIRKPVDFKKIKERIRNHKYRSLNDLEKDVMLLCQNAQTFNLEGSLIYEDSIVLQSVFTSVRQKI

SMILES	BRD4-BD2 ΔTm [3] [°C]	CREBBP ΔTm [4] [°C]	p300 ΔTm [5] [°C]	BRD3-BD2 ΔTm [6] [°C]	ASH1L ΔTm [7] [°C]	BRD7 ΔTm [8] [°C]	BRDT-BD1 ΔTm [9] [°C]	CECR2 ΔTm [10] [°C]	BRD3-BD1 ΔTm [11] [°C]	BRD4-BD1 ΔTm [12] [°C]	BRD2-BD2 ΔTm [13] [°C]	TRIM33A ΔTm [14] [°C]	PCAF ΔTm [15] [°C]	further results
Cc1ccccc1C1NC(=O)c2c(Cl)cccc2N1 (stereo not shown) [Compound 15, 5-Chloro-2-(2-methylphenyl)-2,3-dihydroquinazolin-4(1H)-one]	−3.3	0.5	0.2	0.4	−0.6	0.2	−0.7	−0.5	0.3	0.1	0.6	0.8	0.5	thermal stabilization against other tested bromodomains [1]: < 1 °C; Kd SMARCA2 [2]: did not exhibit detectable thermal stabilization or binding affinity; SMARCA4 ΔTm [16]: did not exhibit detectable thermal stabilization or binding affinity; Kd SMARCA4 [17]: did not exhibit detectable thermal stabilization or binding affinity
Cc1cccc(C2NC(=O)c3c(Cl)cccc3N2)c1C (stereo not shown) [Compound 25, 5-Chloro-2-(2,3-dimethylphenyl)-2,3-dihydroquinazolin-4(1H)-one]	−4.2	0.6	0.6	0.4	−0.8	0.0	0.1	0.8	0.4	0.6	0.2	0.3	0.1	growth inhibition of HEK293T cells [18]: also inhibits the PC3, RWPE1, and HEK293T cells similarly; growth inhibition of RWPE1 cells [19]: also inhibits the PC3, RWPE1, and HEK293T cells similarly; growth inhibition of PC3 cells [20]: also inhibits the PC3, RWPE1, and HEK293T cells similarly; SMARCA2 ΔTm [21]: 0.0 °C
